Structures are written as SMILES.

Test in all cases: NCI 60 cell line screen
Assay type in all cases: cell-based

The test system of assay [1] is 786-0. The settings on record: Homo sapiens; 786-0, Renal Cancer; read-out: Percent growth. The method in brief:
(§1)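 Human tumour lines were grown in RPMI 1640 with 5% FBS and 2 mM L-glutamine, then exposed 48 h at 37 °C to five concentrations (max 10 µM) after 24 h pre-incubation. Growth was measured by sulforhodamine B protein staining at 515 nm relative to time-zero and untreated controls.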

Assay [2] deals with A498. The settings on record: Homo sapiens; A498, Renal Cancer; read-out: Percent growth. In outline:
as §1

Assay [3] concerns DU-145. Particulars: Homo sapiens; DU-145, Prostate Cancer; read-out: Percent growth. In outline: as §1
Assay [4] relates to HCT-116. Particulars: Homo sapiens; HCT-116, Colon Cancer; read-out: Percent growth. The method in brief: as §1
Assay [5] deals with HS 578T. The settings on record: Homo sapiens, Breast Cancer, read-out: Percent growth. In outline:
as §1

Assay [6] has as its system IGROV1. Particulars: Homo sapiens, IGROV-1; IGROV1, Ovarian Cancer; read-out: Percent growth. In outline: as §1
Assay [7] has as its system MCF7. Particulars: Homo sapiens; MCF7, Breast Cancer; read-out: Percent growth. The method in brief: as §1
Assay [8] concerns MDA-MB-231/ATCC. The settings on record: Homo sapiens, Breast Cancer, read-out: Percent growth. The method in brief: as §1
The test system of assay [9] is NCI-H322M. The settings on record: Homo sapiens, Non-Small Cell Lung Cancer, read-out: Percent growth. The method in brief:
as §1

Assay [10] has as its system OVCAR-3. Particulars: Homo sapiens; OVCAR-3, Ovarian Cancer; read-out: Percent growth. The method in brief:
as §1

The test system of assay [11] is OVCAR-5. The settings on record: Homo sapiens; OVCAR-5, Ovarian Cancer; read-out: Percent growth. In outline: as §1
Assay [12] concerns OVCAR-8. The settings on record: Homo sapiens; OVCAR-8, Ovarian Cancer; read-out: Percent growth. The method in brief:
as §1

In assay [13] the test system is SF-268. The settings on record: Homo sapiens; SF-268, CNS-Cancer; read-out: Percent growth. In outline: as §1
The test system of assay [14] is SF-539. The settings on record: Homo sapiens; SF-539, CNS-Cancer; read-out: Percent growth. In outline:
as §1

The test system of assay [15] is SK-MEL-2. The settings on record: Homo sapiens; SK-MEL-2, Melanoma; read-out: Percent growth. The method in brief: as §1
Assay [16] deals with SK-OV-3. Particulars: Homo sapiens; SK-OV-3, Ovarian Cancer; read-out: Percent growth. In outline:
as §1

Assay [17] relates to SN12C. The settings on record: Homo sapiens, Renal Cancer, read-out: Percent growth. The method in brief: as §1
The test system of assay [18] is SNB-19. Particulars: Homo sapiens; SNB-19, CNS-Cancer; read-out: Percent growth. In outline:
as §1

Assay [19] concerns TK-10. The settings on record: Homo sapiens; TK-10, Renal Cancer; read-out: Percent growth. In outline:
as §1

Assay [20] concerns UACC-62. The settings on record: Homo sapiens; UACC-62, Melanoma; read-out: Percent growth. The method in brief: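 Growth inhibition is expressed as percent growth versus time-zero and vehicle controls, from SRB absorbance at 515 nm. Compounds span five concentrations (max 10 µM) for 48 h in RPMI 1640 with 5% serum. TGI corresponds to Ti = Tz.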

In the case of `Cc1ccc(S(=O)(=O)NCCNc2nccc(-n3cnc4ccccc43)n2)cc1` [12g, N-(2-((4-(1H-benzo [d]imidazol-1-yl)pyrimidin-2-yl)amino)ethyl)-4-methyl benzenesulfonamide], the activity at 10 µM in assay [1] is 85.4%; in assay [2], 62.1%; in [3] it was 89.3%; in assay [4] it was 64.1%; in [5], 64.2%; in assay [6], 75.2%. Besides, the activity at 10 µM came to 67.9% in assay [7]; 62.5% in assay [8]; 94.4% in assay [9]; 82% in [10]; 87.8% in assay [11]; 79.8% in assay [12]. Besides, the activity at 10 µM in assay [13] stood at 68.8%; in [14] it was 79.7%; in [15] it was 87.7%; in assay [16], 79.5%; in assay [17], 79%; in [18] it was 86.8%. Besides, the results for the activity at 10 µM in assay [19] and in [20] were 83.7% and 53%, respectively.
As to `O=S(=O)(NCCCNc1nccc(-n2cnc3ccccc32)n1)c1ccc(C(F)(F)F)cc1` [12l, N-(3-((4-(1H-benzo [d]imidazol-1-yl)pyrimidin-2-yl)amino)propyl)-4-(trifluoromethyl) benzenesulfonamide], the activity at 10 µM in assay [1] was 77.2%; in assay [2] it was 55.3%; in [3], 83.5%; in [4] it was 65.6%; in assay [5], 58.6%; in assay [6], 74.3%. The activity at 10 µM in assay [7] was 65.5%; in assay [8], 68.7%; in assay [9], 89.9%; in assay [10] it was 81.2%; in assay [11], 87.2%; in assay [12], 60%. The activity at 10 µM was determined as 66.5% in assay [13]; 74.5% in assay [14]; 91% in [15]; 80.3% in [16]; 80.5% in assay [17]; 83.4% in [18]. Besides, the activity at 10 µM in assay [19] was determined as 81.5%; in assay [20] it was 64.1%.
Regarding `COc1ccc(S(=O)(=O)NCCCNc2nccc(-n3cnc4ccccc43)n2)cc1` [12m, N-(3-((4-(1H-benzo [d]imidazol-1-yl)pyrimidin-2-yl)amino)propyl)-4-methoxy benzenesulfonamide], the activity at 10 µM came out at 95.9% in assay [1]; 81.9% in [2]; 100% in [3]; 89.9% in assay [4]; 84.8% in assay [5]; 91.5% in assay [6]. Also, the activity at 10 µM in assay [7] was 85.1%; in assay [8], 84.1%; in assay [9], 104%; in [10] it was 105%; in assay [11], 99.6%; in [12], 93.7%. In addition, the activity at 10 µM in assay [13] worked out at 91.6%; in assay [14], 83.9%; in assay [15], 103%; in [16], 96.2%; in assay [17] it was 92.4%; in [18], 100%. Further, the activity at 10 µM in [19] is 103%; in assay [20], 76.3%.
Turning to `O=S(=O)(NCCNc1nccc(-n2cnc3ccccc32)n1)c1ccc(Br)cc1` [12d, N-(2-((4-(1H-benzo [d]imidazol-1-yl)pyrimidin-2-yl)amino)ethyl)-4-bromobenzenesulfonamide], the activity at 10 µM worked out at 103% in assay [1]; 76.3% in assay [2]; 99.9% in assay [3]; 99.8% in [4]; 85.7% in assay [5]; 90.7% in assay [6]. In addition, the activity at 10 µM in assay [7] was determined as 78.4%; in assay [8], 88.2%; in assay [9] it was 107%; in [10], 103%; in assay [11] it was 94%; in assay [12], 95.6%. The activity at 10 µM in assay [13] came out at 91.2%; in [14], 96.2%; in assay [15] it was 108%; in [16] it was 99.9%; in [17] it was 91.5%; in assay [18], 101%. Moreover, the activity at 10 µM in [19] was determined as 103%; in [20], 82.8%.
As to `O=S(=O)(NCCCNc1nccc(-n2cnc3ccccc32)n1)c1ccc(Cl)cc1` [12j, N-(3-((4-(1H-benzo [d]imidazol-1-yl)pyrimidin-2-yl)amino)propyl)-4-chloro benzenesulfonamide], the activity at 10 µM in [1] amounted to 103%; in [2] it was 73%; in [3], 100%; in [4] it was 94.1%; in assay [5], 105%; in [6] it was 114%. Moreover, the activity at 10 µM was determined as 89% in assay [7]; 89.4% in assay [8]; 104% in [9]; 107% in [10]; 105% in assay [11]; 90.8% in [12]. In addition, the activity at 10 µM is 98.2% in assay [13]; 91.9% in [14]; 108% in assay [15]; 117% in assay [16]; 91.7% in assay [17]; 104% in assay [18]. Further, the activity at 10 µM in assay [19] came out at 104%; in assay [20], 81.5%.
Regarding `O=S(=O)(NCCCNc1nccc(-n2cnc3ccccc32)n1)c1ccc(F)cc1` [12i, N-(3-((4-(1H-benzo [d]imidazol-1-yl)pyrimidin-2-yl)amino)propyl)-4-fluorobenzenesulfonamide], the activity at 10 µM was 97.7% in [1]; 70.5% in [2]; 87.2% in [3]; 58.7% in assay [4]; 82.4% in assay [5]; 91.8% in assay [6]. Further, the activity at 10 µM in assay [7] worked out at 63.7%; in [8], 74.4%; in assay [9], 99.5%; in assay [10], 86.7%; in assay [11], 98.6%; in assay [12], 62.5%. The activity at 10 µM was 86.3% in assay [13]; 86.2% in assay [14]; 85.8% in [15]; 85.2% in [16]; 89% in [17]; 92.6% in assay [18]. Besides, the activity at 10 µM came out at 91.9% in [19] and 61.6% in assay [20].
On to `O=S(=O)(NCCNc1nccc(-n2cnc3ccccc32)n1)c1ccc(C(F)(F)F)cc1` [12e, N-(2-((4-(1H-benzo [d]imidazol-1-yl)pyrimidin-2-yl)amino)ethyl)-4-(trifluoromethyl)benzenesulfonamide], for which the activity at 10 µM was 69.7% in [1]; 56.6% in [2]; 71.8% in assay [3]; 40.1% in assay [4]; 42.9% in assay [5]; 66.4% in [6]. In addition, the activity at 10 µM in [7] turned out to be 34.9%; in assay [8], 64%; in assay [9], 85.3%; in assay [10], 72.9%; in assay [11], 86.2%; in [12] it was 63.5%. Further, the activity at 10 µM in [13] turned out to be 59.5%; in assay [14] it was 64.8%; in assay [15] it was 67.8%; in assay [16], 62.2%; in [17], 72.5%; in assay [18], 69.8%. In addition, the activity at 10 µM amounted to 63.4% in [19] and 42.4% in [20].

Source of the values: paper PMC8508980, “Design, Synthesis and Anticancer Profile of New 4-(1H-benzo[d]imidazol-1-yl)pyrimidin-2-amine-Linked Sulfonamide Derivatives with V600EBRAF Inhibitory Effect” (International Journal of Molecular Sciences, 2021).
